The target in this experiment is T1, GlyT1 transporter (Homo sapiens, UniProt P48067).
T1 construct: endogenously expressing the GlyT1 transporter; host or cells: SK-N-MC human neuroblastoma cells
T1 sequence (P48067 1-706): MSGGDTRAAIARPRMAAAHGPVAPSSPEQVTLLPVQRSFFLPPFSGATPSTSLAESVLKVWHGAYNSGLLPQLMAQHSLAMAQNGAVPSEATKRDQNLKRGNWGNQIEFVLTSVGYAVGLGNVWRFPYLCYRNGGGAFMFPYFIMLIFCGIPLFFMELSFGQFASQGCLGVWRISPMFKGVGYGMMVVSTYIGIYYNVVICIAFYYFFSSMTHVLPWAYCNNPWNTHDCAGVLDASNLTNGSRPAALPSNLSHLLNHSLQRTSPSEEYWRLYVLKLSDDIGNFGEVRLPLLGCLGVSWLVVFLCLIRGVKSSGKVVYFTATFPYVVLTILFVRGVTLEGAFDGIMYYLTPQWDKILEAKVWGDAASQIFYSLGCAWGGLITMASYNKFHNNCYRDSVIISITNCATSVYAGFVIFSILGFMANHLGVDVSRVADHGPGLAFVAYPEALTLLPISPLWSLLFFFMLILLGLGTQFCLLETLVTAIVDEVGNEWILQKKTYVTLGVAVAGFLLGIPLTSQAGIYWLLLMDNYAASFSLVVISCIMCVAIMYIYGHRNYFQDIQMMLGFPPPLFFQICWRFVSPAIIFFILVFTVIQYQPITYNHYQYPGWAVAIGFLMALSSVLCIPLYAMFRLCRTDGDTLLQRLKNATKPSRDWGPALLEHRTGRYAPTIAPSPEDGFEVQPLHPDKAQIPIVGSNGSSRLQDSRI
Kind of experiment: GlyT1 assay: 3H-glycine uptake into SK-N-MC cells (Cytostar-T format). Conditions: glycine uptake in human SK-N-MC cells endogenously expressing GlyT1; 500 nM glycine, 1% DMSO, signal recorded over 60 min. Format: cell-based. From the text: Cells expressing either endogenously the GlyT1 transporter like JAR cells (human placental choriocarcinoma cells; e.g. WO 2008/002583) or SK-N-MC cells (human neuroblastoma cells; Depoortere et al., 2005. Neuropsychopharmacology 30:1963-1985) or primary neurons or cells which have been transfected with a plasmid encoding the cDNA of a functional GlyT1 transporter and stably or transiently express GlyT1 (e.g. WO 2006/08200) can be used to monitor glycine uptake in cells. Different protocols for determination of the glycine uptake into the cells described above can be applied in order to identify and rank compounds which interfere with glycine uptake in the selected cell.
Compounds outlined in the examples below were characterized using human SK-N-MC cells (ATCC number HTB-10) endogenously expressing the GlyT1 transporter which is responsible for the uptake of glycine into these cells and the uptake of glycine into these cells is monitored using the Cytostar-T assay format (GE Healthcare, RPNQ0162) which is based on the radioactive glycine taken up by the cells and brought into proximity with the scintillant contained within the base of the plate. The radioactive decay is converted to a light signal based on the integration of the scintillation matrix into the assay plate. The uptake is recorded as kinetic and the slope of the measured counts over time is used to calculate IC50.
In detail, SK-N-MC cells are seeded into 96-well Cytostar-T assay plates at a density of 200,000 cells/well and grown for 16-18 hours to confluence in growth medium as recommended by ATCC. Before starting the assay, cells are washed once with HBSS (Hank's buffered salt solution; Sigma, H8264) cont. 5 mM alanine (referred in here as HBSS/Ala) and afterwards the following reagents are added: • 1. 80 μl/well HBSS/Ala • 2. 20 μl/well of HBSS/Ala containing 6× the concentration of compound in 6% DMSO • 3. approx. 5-10 min incubation • 4. 20 μl/well 3 μM glycine (^3H-glycine (Perkin Elmer, NET004001MC, specific activity: 52 Ci/mmol; diluted 1:1 with unlabelled glycine) in HBSS/Ala.
In the final assay, glycine concentration is 500 nM (250 nM derived from the ^3H-glycine Perkin Elmer, 250 nM unlabelled glycine), DMSO concentration is 1%.
The assay plate is immediately after addition of the ^3H-glycine placed into a Micro-Beta Counter (Perkin Elmer) and the signal is recorded over 60 min.
To calculate uptake, the slope in the linear range of the kinetics is determined using GraphPadPrism and for the different slopes at the selected concentrations IC50 are calculated by curve fitting using the software GraphPadPrism.
Maximal glycine uptake in every experiment is determined by incubation of SK-N-MC cells with substrate but without inhibitor. Unspecific uptake of glycine by the cells is determined by incubating the cells with substrate and a reference GlyT1 inhibitor e.g. 10 μM RG-1678 (Pinard et al., 2010, J. Med. Chem. 53(12):4603-14).
Compounds are diluted from 10 mM stocks and in general, for IC50 determination 8 compound concentrations are used.
Regarding `Cc1cc(C23CC2CN(C(=O)c2cc(S(C)(=O)=O)ccc2O[C@@H](C)C(F)(F)F)C3)no1` (mixture of isomers) [Example 52, [5-Methanesulfonyl-2-(2,2,2-trifluoro-1-methyl-ethoxy)-phenyl]-[1-(5-methyl-isoxazol-3-yl)-3-aza-bicyclo[3.1.0]hex-3-yl]-methanone], 0.015 µM corresponded to half-maximal inhibition (IC50). Regarding `C[C@@H](Oc1ccc(S(C)(=O)=O)cc1C(=O)N1CC2CC2(c2nccc(C(F)(F)F)n2)C1)C(F)(F)F` (mixture of isomers) [Example 72, [5-Methanesulfonyl-2-(2,2,2-trifluoro-1-methyl-ethoxy)-phenyl]-[1-(4-trifluoromethyl-pyrimidin-2-yl)-3-aza-bicyclo[3.1.0]hex-3-yl]-methanone], half-maximal inhibition (IC50) required 0.017 µM. Take `Cc1nc(C23CC2CN(C(=O)c2cc(S(C)(=O)=O)ccc2O[C@H](C)C(F)(F)F)C3)no1` (mixture of isomers) [Example 101, [5-Methanesulfonyl-2-(2,2,2-trifluoro-1-methyl-ethoxy)-phenyl]-[1-(5-methyl-[1,2,4]oxadiazol-3-yl)-3-aza-bicyclo[3.1.0]hex-3-yl]-methanone]: the IC50 (in general, the concentration needed to halve the response being measured) amounted to 0.015 µM. In the case of `C[C@H](Oc1ccc(S(C)(=O)=O)cc1C(=O)N1CC2CC2(c2cc(C(F)(F)F)on2)C1)C(F)(F)F` (single isomer, unassigned) [Example 47, [5-Methanesulfonyl-2-(2,2,2-trifluoro-1-methyl-ethoxy)-phenyl]-[1-(5-trifluoromethyl-isoxazol-3-yl)-3-aza-bicyclo[3.1.0]hex-3-yl]-methanone], half-maximal inhibition (IC50) required 0.007 µM.

Consider `C[C@@H](Oc1ccc(S(C)(=O)=O)cc1C(=O)N1CC2CC2(c2noc(C3(C)CC3)n2)C1)C(F)(F)F` (mixture of isomers) [Example 135, [5-Methanesulfonyl-2-(2,2,2-trifluoro-1-methyl-ethoxy)-phenyl]-{1-[5-(1-methyl-cyclopropyl)-[1,2,4]oxadiazol-3-yl]-3-aza-bicyclo[3.1.0]hex-3-yl}-methanone], for which inhibition was half-maximal at 0.007 µM (IC50).

On to `Cc1nc(C23CC2CN(C(=O)c2cc(S(C)(=O)=O)ccc2O[C@@H](C)C(F)(F)F)C3)co1` (mixture of isomers) [Example 32, [5-Methanesulfonyl-2-(2,2,2-trifluoro-1-methyl-ethoxy)-phenyl]-[1-(2-methyl-oxazol-4-yl)-3-aza-bicyclo[3.1.0]hex-3-yl]-methanone], for which half-maximal inhibition (IC50) was put at 0.026 µM.

`C[C@@H](Oc1ccc(S(C)(=O)=O)cc1C(=O)N1CC2CC2(c2noc(C(F)(F)F)n2)C1)C(F)(F)F` (mixture of isomers) [Example 58, [5-Methanesulfonyl-2-(2,2,2-trifluoro-1-methyl-ethoxy)-phenyl]-[1-(5-trifluoromethyl-[1,2,4]oxadiazol-3-yl)-3-aza-bicyclo[3.1.0]hex-3-yl]-methanone] yielded an IC50 of 0.017 µM. As for `C[C@@H](Oc1ccc(S(C)(=O)=O)cc1C(=O)N1CC2CC2(c2nc(C(F)(F)F)no2)C1)C(F)(F)F` (single isomer, unassigned) [Example 87, [5-Methanesulfonyl-2-(2,2,2-trifluoro-1-methyl-ethoxy)-phenyl]-[1-(3-trifluoromethyl-[1,2,4]oxadiazol-5-yl)-3-aza-bicyclo[3.1.0]hex-3-yl]-methanone], the figure is 2.36 µM; as for `C[C@H](Oc1ccc(C#N)cc1C(=O)N1CC2CC2(c2noc(C(F)(F)F)n2)C1)C(F)(F)F` (single isomer, unassigned) [Example 89, 4-(2,2,2-Trifluoro-1-methyl-ethoxy)-3-[1-(5-trifluoromethyl-[1,2,4]oxadiazol-3-yl)-3-aza-bicyclo[3.1.0]hexane-3-carbonyl]-benzonitrile], 0.097 µM. `C[C@@H](Oc1ccc(S(C)(=O)=O)cc1C(=O)N1CC2CC2(c2ncc(C(F)(F)F)o2)C1)C(F)(F)F` (single isomer, unassigned) [Example 130, [5-Methanesulfonyl-2-(2,2,2-trifluoro-1-methyl-ethoxy)-phenyl]-[1-(5-trifluoromethyl-oxazol-2-yl)-3-aza-bicyclo[3.1.0]hex-3-yl]-methanone] had an IC50 of 0.003 µM. As to `Cc1coc(C23CC2CN(C(=O)c2cc(S(C)(=O)=O)ccc2O[C@@H](C)C(F)(F)F)C3)n1` (mixture of isomers) [Example 33, [5-Methanesulfonyl-2-(2,2,2-trifluoro-1-methyl-ethoxy)-phenyl]-[1-(4-methyl-oxazol-2-yl)-3-aza-bicyclo[3.1.0]hex-3-yl]-methanone], the IC50 was determined as 0.19 µM.

In turn, `C[C@@H](Oc1ccc(S(C)(=O)=O)cc1C(=O)N1CC2CC2(c2ncc(C(F)(F)F)o2)C1)C(F)(F)F` (single isomer, unassigned) [Example 129, [5-Methanesulfonyl-2-(2,2,2-trifluoro-1-methyl-ethoxy)-phenyl]-[1-(5-trifluoromethyl-oxazol-2-yl)-3-aza-bicyclo[3.1.0]hex-3-yl]-methanone] showed an IC50 of 0.147 µM.

Turning to `C[C@@H](Oc1ccc(S(C)(=O)=O)cc1C(=O)N1CC2CC2(c2noc(C3(C(F)(F)F)CC3)n2)C1)C(F)(F)F` (single isomer, unassigned) [Example 69, [5-Methanesulfonyl-2-(2,2,2-trifluoro-1-methyl-ethoxy)-phenyl]-{1-[5-(1-trifluoromethyl-cyclopropyl)-[1,2,4]oxadiazol-3-yl]-3-aza-bicyclo[3.1.0]hex-3-yl}-methanone], the IC50 turned out to be 0.003 µM.

Turning to `CCS(=O)(=O)c1ccc(O[C@H](C)C(F)(F)F)c(C(=O)N2CC3CC3(c3cc(C(F)(F)F)on3)C2)c1` (single isomer, unassigned) [Example 107, [5-Ethanesulfonyl-2-(2,2,2-trifluoro-1-methyl-ethoxy)-phenyl]-[1-(5-trifluoromethyl-isoxazol-3-yl)-3-aza-bicyclo[3.1.0]hex-3-yl]-methanone], the IC50 stood at 0.005 µM. Regarding `C[C@H](Oc1ccc(S(C)(=O)=O)cc1C(=O)N1CC2CC2(c2cn3ccccc3n2)C1)C(F)(F)F` (mixture of isomers) [Example 24, (1-Imidazo[1,2-a]pyridin-2-yl-3-aza-bicyclo[3.1.0]hex-3-yl)-[5-methanesulfonyl-2-(2,2,2-trifluoro-1-methyl-1-ethoxy)-phenyl]-methanone], the midpoint of inhibition, the IC50, lay at 0.911 µM. As for `C[C@H](Oc1ccc(S(C)(=O)=O)cc1C(=O)N1CC2CC2(c2noc(C3CC(F)(F)C3)n2)C1)C(F)(F)F` (mixture of isomers) [Example 13, {1-[5-(3,3-Difluoro-cyclobutyl)-[1,2,4]oxadiazol-3-yl]-3-aza-bicyclo[3.1.0]hex-3-yl}-[5-methanesulfonyl-2-(2,2,2-trifluoro-1-methyl-ethoxy)-phenyl]-methanone], the figure is 0.009 µM; as for `C[C@@H](Oc1ccc(S(C)(=O)=O)cc1C(=O)N1CC2CC2(c2noc(C3(C(F)(F)F)CC3)n2)C1)C(F)(F)F` (mixture of isomers) [Example 68, [5-Methanesulfonyl-2-(2,2,2-trifluoro-1-methyl-ethoxy)-phenyl]-{1-[5-(1-trifluoromethyl-cyclopropyl)-[1,2,4]oxadiazol-3-yl]-3-aza-bicyclo[3.1.0]hex-3-yl}-methanone], 0.007 µM.
